{"source": "patent US9532519B2", "about": "“Plant growth regulator and use thereof” (Japan Science and Technology Agency, priority 2006, dated 2017)", "key": {"[1]": {"test_system": "Roses (breed; Patiohit alicante)", "test": "Effect 1 on promotion of induction of floral bud of rose", "assay_type": "in vivo", "conditions": "50 mL of 0.5 mM-GSSG two times a week; approximately three and a half months", "protocol": "Roses (breed; Patiohit alicante) were purchased at a hardware store and fertilized with 50 mL of a 0.5 mM-GSSG solution in the form of a liquid fertilizer two times a week. Approximately three and a half months later, plants in a GSSG-treated zone and plants in a non-GSSG-treated zone were compared with each other."}, "[2]": {"test_system": "transformants of Arabidopsis to which a gene encoding gFBA was introduced and the wild-type Arabidopsis (Columbia; Col)", "conditions": "in vivo"}, "[3]": {"test_system": "Arabidopsis seeds", "test": "Germination rate (ripeness) of seeds from Arabidopsis cultivated with oxidized glutathione", "assay_type": "in vivo", "text": "Ripeness of seeds obtained from Arabidopsis cultivated with oxidized glutathione was examined."}, "[4]": {"test_system": "Arabidopsis", "test": "Influence 1 of treatment condition on seeds of Arabidopsis (concentration and duration from sowing)", "assay_type": "in vivo", "protocol": "Seeds of Arabidopsis were sown in pods filled with soil immersed in 0 mM-, 0.01 mM-, 0.2 mM-, 1 mM-, 2 mM-, and 5 mM-GSSG.\n(§1) Arabidopsis was cultivated under the same conditions as those described in <1. Influence of oxidized glutathione on growth of Arabidopsis> except for the above condition.\nThe seed weight per one pod, obtained from Arabidopsis thus cultivated (three plants in each pod), was measured. The results of the measurement are shown in FIGS. 10-12. n is the number of plants that can be finally harvested."}, "[5]": {"test_system": "Sweet corn", "conditions": "in vivo"}, "[6]": {"test_system": "Arabidopsis", "test": "Influence 2 of treatment condition on seeds of Arabidopsis (start time of 1 mM-GSSG)", "assay_type": "in vivo", "conditions": "regardless of the time of treating", "protocol": "Seeds of Arabidopsis were sown in pods filled with soil immersed in water. The pods were transferred to trays with water containing 1 mM-GSSG 2 days after, 1 week after, 2 weeks after, 3 weeks after, 4 weeks after, 5 weeks after, 6 weeks after, or 7 weeks after the sowing.\nas §1\n(§2) The seed weight per one pod, obtained from Arabidopsis thus cultivated (three plants in each pod), was measured."}, "[7]": {"test_system": "Rose (breed; English rose)", "test": "Influence of oxidized glutathione on growth of rose (English rose)", "assay_type": "in vivo", "conditions": "50 mL of 0.5 mM-GSSG two times a week for four months, then pruned", "protocol": "Rose (breed; English rose) was fertilized with 50 mL of a 0.5 mM-GSSG solution two times a week for four months and then pruned completely and cultivated."}, "[8]": {"test_system": "Arabidopsis", "test": "Influence 4 of treatment condition on seeds of Arabidopsis (two weeks of 1 mM-GSSG)", "assay_type": "in vivo", "conditions": "1 mM-GSSG only for two weeks in a specific growth period", "protocol": "Seeds of Arabidopsis were sown in pods filled with soil immersed in water. The pods were transferred to trays filled with water containing 1 mM-GSSG and cultivated there only for two weeks that are the first and second weeks (0th-14th day), the second and third weeks (8th-21st day), the third and fourth weeks (15th-28th day), the fourth and fifth weeks (22nd-35th day), the fifth and sixth weeks (29th-42nd day), or the sixth and seventh weeks (36th-49th day) after the sowing. That is, Arabidopsis were treated with 1 mM-GSSG only for two weeks in a specific growth period.\nas §1, §2"}, "[9]": {"test_system": "Sweet corn", "test": "Effect 3 of oxidized glutathione on productivity of corn (foliar spray)", "assay_type": "in vivo", "conditions": "GSSG sprayed to a stem and leaves four times in two weeks after six weeks from the sowing", "protocol": "Sweet corn was cultivated under the same conditions as those of <15.\nThe amount of fruits and the amount of biomass of ground parts of the plant thus obtained were measured with respect to each plant and harvest index was calculated."}, "[10]": {"test_system": "Sweet corn (Canberra 90, TAKII & CO., LTD.)", "test": "Effect 2 of oxidized glutathione on productivity of corn (time of treatment)", "assay_type": "in vivo", "protocol": "Sweet corn (Canberra 90, TAKII & CO., LTD.) was sown, and then transferred to a hydroponics pot ( 1/2000 are) filled with a culture soil (6 L of vermiculite as the lower layer, 3 L of The Kureha Ikubyou Baido soil as the middle layer, and 3 L of vermiculite as the upper layer) two weeks later and additionally fertilized with 3 g of KUMIAI RIN […] S604 four weeks later and six weeks later.\nFurther, the GSSG-treated plant was given 50 mL of 0.2 mM-GSSG solution four times in 2 weeks (two times a week) after 2 weeks, 4 weeks, or 6 weeks had elapsed from the sowing. Further, there were prepared a management zone to which 0.2 mM-GSSG was given 22 times in total for 11 weeks after 2 weeks had elapsed from the sowing and a management zone to which 0.2 mM-GSSG was not given.\nThe amount of fruits and the amount of biomass of ground parts of each plant were measured and harvest index was calculated."}, "[11]": {"test_system": "rice (Akita 63)", "test": "Rice hydroponics, GSSG in additional fertilization, number of ears", "assay_type": "in vivo", "conditions": "GSSG 0.2 gN per test location (0.1 m2) in additional fertilization", "text": "In particular, the method is effective for a plant such as gramineae whose yield is greatly dependent on tillers."}, "[12]": {"test_system": "Sweet corn (Canberra 90, TAKII & CO., LTD.)", "test": "Effect 1 of oxidized glutathione on productivity of corn", "assay_type": "in vivo", "conditions": "200 mL of 0.5 mM-GSSG two times a week for 12 weeks at root", "protocol": "Sweet corn (Canberra 90, TAKII & CO., LTD.) was sown, and then transferred to a hydroponics pot ( 1/2000 are) filled with a culture soil (6 L of vermiculite as the lower layer, 3 L of The Kureha Ikubyou Baido soil as the middle layer, and 3 L of vermiculite as the upper layer) two weeks later and additionally fertilized with 3 g of KUMIAI RIN […] S604 four weeks later and six weeks later. Further, the GSSG-treated plant was given 200 mL of 0.5 mM-GSSG two times a week for 12 weeks after germination at its root."}, "[13]": {"test_system": "Tsai-hsin", "test": "Influence of oxidized glutathione on growth of tsai-hsin, agricultural field", "assay_type": "in vivo", "conditions": "0.5 mM- or 5 mM-GSSG sprayed to leaves two times a week, 1 L per zone (3 m^2)", "text": "Tsai-hsin was cultivated for two weeks, and then transferred to an agricultural field and grown with or without the treatment with GSSG. Tsai-hsin was fertilized with a nitrogen fertilizer that was KUMIAI RIN […] S604 in a ratio of 20 kgN per 10 are, and was additionally fertilized with 5 kgN 3 weeks later."}, "[14]": {"conditions": "0.2 mM-GSSG, eleven weeks after two weeks had elapsed from the sowing"}}}
{"substance": "oxidized glutathione [GSSG]", "values": [{"measurement": "number of bloomed flowers vs not treated", "setting": "[1]", "value": "greatly larger number of bloomed flowers"}, {"measurement": "harvest index, whole amount of biomass and seed weight", "setting": "[2]", "value": "increased any of the harvest index, the whole amount of biomass, and the seed weight"}, {"measurement": "germination rate", "setting": "[3]; 2 days after the sowing", "value": "significantly high"}, {"measurement": "germination rate, difference from seeds of plants cultivated normally", "setting": "[3]; 7 days after the sowing", "value": "almost no difference"}, {"measurement": "germination speed of seeds of treated plants vs plants cultivated normally", "setting": "[3]; seeds sown in 1/2 MS culture media", "value": "germinated faster"}, {"measurement": "seed weight per pod: effective concentration", "setting": "[4]; supplying GSSG for a long time", "value": "GSSG with low concentration is more effective than GSSG with high concentration"}, {"measurement": "seed weight per pod: effective concentration", "setting": "[4]; supplying GSSG for a short time", "value": "GSSG with high concentration is more desirable"}, {"measurement": "amount of biomass of fruits per plant vs not treated", "setting": "[5]", "value": "higher amount of biomass of fruits"}, {"measurement": "amount of biomass of ground parts vs not treated", "setting": "[5]", "value": "substantially the same or lower amount of biomass of ground parts"}, {"measurement": "amount of biomass of the portions other than fruits vs not treated", "setting": "[5]", "value": "lower amount of biomass of the portions other than fruits"}, {"measurement": "amounts of biomass of the portions other than fruits and ground parts vs not treated", "setting": "[5]", "value": "greatly lower amounts of biomass of the portions other than fruits and ground parts"}, {"measurement": "harvest index vs not treated", "setting": "[5]", "value": "higher harvest index"}, {"measurement": "whole amount of biomass per area vs not treated", "setting": "[5]", "value": "did not exhibit a significant difference"}, {"measurement": "seed weight per one pod vs no treatment", "setting": "[6]", "value": "more seed weight"}, {"measurement": "germination and growth of new buds vs not treated", "setting": "[7]", "value": "significantly earlier germination and significant promotion of growth of new buds"}, {"measurement": "seed weight per one pod vs not treated", "setting": "[8]", "value": "significantly increased the seed weight"}, {"measurement": "amount of fruits, amount of biomass of ground parts and harvest index of each plant", "setting": "[9]", "value": "increased the amount of fruits, the amount of biomass of ground parts, and the harvest index"}, {"measurement": "amount of fruits and amount of biomass of ground parts per plant vs not treated", "setting": "[10]; [14]", "value": "a larger amount of fruits and a larger amount of biomass of ground parts"}, {"measurement": "harvest index vs not treated", "setting": "[10]; [14]", "value": "great increase in harvest index"}, {"measurement": "amount of fruits and amount of biomass of ground parts per plant vs not treated", "setting": "[10]; 0.2 mM-GSSG, two weeks after four weeks had elapsed from the sowing", "value": "a larger amount of fruits and a larger amount of biomass of ground parts"}, {"measurement": "amount of fruits and amount of biomass of ground parts per plant vs not treated", "setting": "[10]; 0.2 mM-GSSG, two weeks after six weeks had elapsed from the sowing", "value": "a smaller amount of fruits and a smaller amount of biomass of ground parts"}, {"measurement": "harvest index vs not treated", "setting": "[10]; 50 mL of 0.2 mM-GSSG, two weeks after four weeks had elapsed from the sowing", "value": "great increase in harvest index"}, {"measurement": "harvest index vs not treated", "setting": "[10]; 50 mL of 0.2 mM-GSSG, two weeks after six weeks had elapsed from the sowing", "value": "larger harvest index"}, {"measurement": "number of ears relative to plant cultivated with only water", "setting": "[11]", "value": "approximately 1.4 times"}, {"measurement": "amount of biomass of the portions other than the fruits vs not treated", "setting": "[12]", "value": "no great difference"}, {"measurement": "amounts of biomass of the fruits and ground parts", "setting": "[12]", "value": "significantly high"}, {"measurement": "formation of floral buds vs not treated", "setting": "[12]", "value": "promotion of formation of floral buds"}, {"measurement": "harvest index vs not treated", "setting": "[12]", "value": "significantly high harvest index"}, {"measurement": "number of edible seeds vs not treated", "setting": "[12]", "value": "more number of edible seeds"}, {"measurement": "size of fruits vs not treated", "setting": "[12]", "value": "larger"}, {"measurement": "size of seeds vs not treated", "setting": "[12]", "value": "larger"}, {"measurement": "amount of growth vs normal nitrogen management zone", "setting": "[13]", "value": "significant increase in the amount of growth"}]}
